According to the NIST ThermoML archive (doi:10.1016/j.jct.2014.07.001):

Assay: xn = mol fraction of the nth substance listed
Conditions: Drop volume

CCCC[n+]1cccc(C)c1.F[B-](F)(F)F [1-butyl-3-methylpyridinium tetrafluoroborate] + CCO
surface tension liquid-gas [mN/m]
Conditions | 293.15 K | 303.15 K | 313.15 K | 323.15 K
x1 = 0.0279 | 22.56 | 21.82 | 21.07 | 20.3
x1 = 0.0486 | 22.72 | 22.04 | 21.34 | 20.64
x1 = 0.0988 | 23.15 | 22.56 | 22.03 | 21.43
x1 = 0.2016 | 24.19 | 23.8 | 23.55 | 23.17
x1 = 0.2987 | 25.71 | 25.43 | 25.32 | 25.07
x1 = 0.3978 | 27.89 | 27.63 | 27.56 | 27.34
x1 = 0.5001 | 30.59 | 30.28 | 30.15 | 29.91
x1 = 0.5865 | 33.12 | 32.73 | 32.51 | 32.21
x1 = 0.6878 | 36.16 | 35.68 | 35.34 | 34.96
x1 = 0.7851 | 39.08 | 38.51 | 38.04 | 37.59
x1 = 0.887 | 42.04 | 41.38 | 40.81 | 40.3
x1 = 0.945 | 43.68 | 42.99 | 42.35 | 41.81
x1 = 1 | 45.21 | 44.48 | 43.8 | 43.24

CCCC[n+]1cccc(C)c1.F[B-](F)(F)F [1-butyl-3-methylpyridinium tetrafluoroborate] + CO
surface tension liquid-gas [mN/m]
Conditions | 293.15 K | 303.15 K | 313.15 K | 323.15 K
x1 = 0.0489 | 23.93 | 23.18 | 22.36 | 21.55
x1 = 0.1011 | 25.33 | 24.62 | 23.88 | 23.15
x1 = 0.1984 | 27.89 | 27.26 | 26.63 | 26.04
x1 = 0.2961 | 30.43 | 29.87 | 29.36 | 28.9
x1 = 0.4021 | 33.15 | 32.66 | 32.26 | 31.9
x1 = 0.4935 | 35.36 | 34.89 | 34.55 | 34.25
x1 = 0.5892 | 37.57 | 37.12 | 36.81 | 36.56
x1 = 0.688 | 39.67 | 39.2 | 38.86 | 38.62
x1 = 0.7395 | 40.72 | 40.22 | 39.87 | 39.6
x1 = 0.8001 | 41.87 | 41.35 | 40.95 | 40.65
x1 = 0.8803 | 43.3 | 42.72 | 42.23 | 41.86
x1 = 0.935 | 44.21 | 43.56 | 42.99 | 42.53
x1 = 1 | 45.21 | 44.48 | 43.8 | 43.24

CCCC[n+]1ccc(C)cc1.F[B-](F)(F)F [1-butyl-4-methylpyridinium tetrafluoroborate] + CCO
surface tension liquid-gas [mN/m]
Conditions | 293.15 K | 303.15 K | 313.15 K | 323.15 K
x1 = 0.0497 | 22.7 | 22.02 | 21.32 | 20.63
x1 = 0.0993 | 23.17 | 22.6 | 22.02 | 21.44
x1 = 0.1995 | 24.47 | 24.08 | 23.68 | 23.27
x1 = 0.2946 | 25.95 | 25.68 | 25.41 | 25.14
x1 = 0.36 | 27.2 | 26.98 | 26.77 | 26.55
x1 = 0.4269 | 28.57 | 28.38 | 28.22 | 28.04
x1 = 0.4882 | 29.99 | 29.81 | 29.65 | 29.49
x1 = 0.589 | 32.66 | 32.44 | 32.25 | 32.05
x1 = 0.7001 | 35.92 | 35.61 | 35.34 | 35.05
x1 = 0.7895 | 38.75 | 38.33 | 37.95 | 37.57
x1 = 0.8345 | 40.28 | 39.79 | 39.35 | 38.89
x1 = 0.8805 | 41.85 | 41.29 | 40.77 | 40.25
x1 = 1 | 45.82 | 45.09 | 44.41 | 43.71

CCCC[n+]1ccc(C)cc1.F[B-](F)(F)F [1-butyl-4-methylpyridinium tetrafluoroborate] + CO
surface tension liquid-gas [mN/m]
Conditions | 293.15 K | 303.15 K | 313.15 K | 323.15 K
x1 = 0.0247 | 23.3 | 22.55 | 21.71 | 20.88
x1 = 0.0983 | 25.35 | 24.66 | 23.92 | 23.23
x1 = 0.195 | 27.93 | 27.31 | 26.68 | 26.12
x1 = 0.2914 | 30.53 | 29.98 | 29.46 | 29.05
x1 = 0.3909 | 33.11 | 32.62 | 32.2 | 31.91
x1 = 0.4915 | 35.62 | 35.17 | 34.81 | 34.6
x1 = 0.5378 | 36.77 | 36.34 | 36.02 | 35.84
x1 = 0.61 | 38.46 | 38.04 | 37.73 | 37.57
x1 = 0.6875 | 40.19 | 39.77 | 39.45 | 39.29
x1 = 0.7911 | 42.37 | 41.9 | 41.55 | 41.32
x1 = 0.842 | 43.32 | 42.81 | 42.4 | 42.1
x1 = 0.8754 | 43.91 | 43.36 | 42.91 | 42.54
x1 = 1 | 45.82 | 45.09 | 44.41 | 43.71
